“And” between values parts separate entries of the source, which are not always exact repeats. Equal values may be shown once.
Experiments:
[1] = tested on: TA1537; assay: Ames test, strain TA1537
Procedure: oxidative metabolism system (S9-mix). The maximum concentration tested and […]
Compound 7a was tested in a bacterial mutation screening assay (Ames test) with Salmonella typhimurium TA1535, TA1537, TA98, TA100 and Escherichia coli WP2uvrA(pKM101) in the presence and absence of an exogenous mammalian […]
The bacterial mutation screening assay was a plate incorporation test carried out as previously described15 and according to current methodology. […]

[2] = tested on: human proteasome catalytic subunits (THP-1 extracts); assay: Activity-based probe (UbiQ-018) labelling of THP-1 proteasome; assay type: binding; details: human THP-1 extracts, 100 µM
Procedure: Activity-Based Probe Labelling of THP1 and L. donovani proteasome
Proteasome enriched fractions from THP1 (20 µg), L. donovani (10 µg) and L. donovani
µM for 1 h. Proteasome enriched fractions were also incubated with DMSO as control.
For all proteasome labelling experiments, the active-site probe Me4BodipyFL-Ahx3Leu3VS (UbiQ-018) was used at final concentration of 500 nM in sucrose buffer (50 mM Tris buffer pH 7.5, 5 mM magnesium chloride, 1 mM EDTA, 50 mM NaCl, 250 mM sucrose, 2 mM ATP, 1 mM DTT). Proteasome enriched fractions treated with
DMSO or test compounds, were incubated with the probe for 2h at RT. Samples were then denatured by addition of Laemmli sample buffer, heated to 95°C for 10 min and separated by electrophoresis on a 15% SDS-PAGE acrylamide gel. Following separation, gels were scanned in the fluorescein channel of a ChemiDoc reader (λ excitation/emission = 480/530 nm). Fluorescent proteins were excised and MALDI– TOF analysis carried out by the FingerPrints Proteomics service at the University of

[3] = tested on: L. donovani (LV9); assay: Mouse model of VL (in vivo efficacy in female Balb/C mice); parameters: species or system Leishmania donovani
Procedure: Infected mice were dosed at 3, 10, or 25 mg/kg orally twice a day for 10 consecutive days. Two days after the termination of treatment, mice were euthanized, and the parasite burdens in their livers were determined.
Peripheral blood samples were obtained at 5, 15, 30 min, 1, 2, 4, 6 ,8 and 24 h after intravenous administration and 15, 30, 45 min,1, 2, 4, 6, 8 and 24 h after oral administration. Blood was 1/2 diluted with milliQ water and immediately frozen on dry ice until analysis. Quantification was performed by means of LC-MS/MS (API4000), with a lower limit of quantification of 1 ng/mL. […]
Data analysis and calculation of pharmacokinetic parameters was performed using Phoenix, WinNonLin Version 6.3. […]
For both intravenous and oral administration, the systemic exposures were determined by calculating the area under the blood concentration time curve (AUC) from the start of dosing to the last observed quantifiable concentration (AUC0-t) by using the linear up-log down trapezoidal rule. The slope of the terminal elimination phase was estimated by linear regression of the terminal data points (minimum 3 points) from a natural log concentration versus time plot of the data. The half-life (t1/2) of the terminal elimination phase was calculated as t1/2 = 0.693/λ.
7. In vivo efficacy in female Balb/C mice
To establish infection in mice, sodium stibogluconate-sensitive L. donovani (LV9, WHO designation: MHOM/ET/67/HU3) amastigotes were isolated from the spleen of a heavily infected donor hamster (Janvier, France)7. An inoculum containing 1.0 x 10^8 amastigotes/mL in Dulbecco’s modified eagles medium (high glucose) was prepared […]
and female BalbC mice (Harlan, UK) then infected intravenously via the tail vein with a 0.2 mL bolus (equivalent to ~2.0 x 10^7 amastigotes). Infection was left to establish for […]
daily orally as a suspension in 0.5% hydroxypropylmethylcellulose, 0.4% tween 80 and 0.5% benzyl alcohol. With twice daily regimens, the second daily dose was administered approximately 8 h following the first dose. Dose regimens evaluated were:
1. 50 mg/kg twice daily for 5 days
2. 25 mg/kg, 10 mg/kg and 3 mg/kg twice daily for 10 days
3. 25 mg/kg once daily for 10 days
Miltefosine, as the only oral treatment for visceral leishmaniasis, was used as a […]

[4] = tested on: mouse lymphoma cells; assay: Mouse lymphoma assay
Procedure: oxidative metabolism system (S9-mix). […]
The maximum […]
concentrations analysed were 410.45 µg/mL (1 mM, the maximum concentration in accordance with current guidelines and 100 µg/mL (limited by toxicity), for the 3 and […]
The mouse lymphoma screen was carried out using test methodology based on established procedures for in vitro gene mutation testing17,18,19,20. […]

[5] = 10-d treatment orally twice a day

## O=C(Nc1ccc(F)c(-c2ccn3c(N4CCOCC4)cnc3n2)c1)N1CCCC1 [Compound 8]
[1]; with S9-mix, dose level 50 per plate
  Mean revertants per plate: 18.0
[1]; with S9-mix, dose level 150 per plate
  Mean revertants per plate: 14.5
[1]; with S9-mix, dose level 500 per plate
  Mean revertants per plate: 21.0
[1]; with S9-mix, dose level 1500 per plate
  Mean revertants per plate: 11.0
[1]; with S9-mix, dose level 2500 per plate
  Mean revertants per plate: 13.5
[1]; with S9-mix, dose level 5000 per plate
  Mean revertants per plate: 8.5
[1]; without S9-mix, dose level 50 per plate
  Mean revertants per plate: 14.0
[1]; without S9-mix, dose level 150 per plate
  Mean revertants per plate: 9.5
[1]; without S9-mix, dose level 500 per plate
  Mean revertants per plate: 16.0
[1]; without S9-mix, dose level 1500 per plate
  Mean revertants per plate: 12.5
[1]; without S9-mix, dose level 2500 per plate
  Mean revertants per plate: 14.5
[1]; without S9-mix, dose level 5000 per plate
  Mean revertants per plate: 6.5
[2]
  UbiQ-018 labelling of proteasome subunits: no effect
[3]; 3 mg/kg b.i.d. (10 days PO)
  Reduction in parasite burden (compared to the vehicle control group): 18.4%
[3]; 10 mg/kg b.i.d. (10 days PO)
  Reduction in parasite burden (compared to the vehicle control group): 56.9%
[3]; 25 mg/kg b.i.d. (10 days PO)
  Reduction in parasite burden (compared to the vehicle control group): 98.1% and > 95%
[3]; 25 mg/kg twice a day for 10 days
  exposure giving >95% parasite burden reduction: 27 μg/h per mililiter
[3]; 25 mg/kg u.i.d. (10 days PO)
  Reduction in parasite burden (compared to the vehicle control group): 8.8%
[3]; [5]
  ED90: 16 mg/kg
  ED99: 30 mg/kg
[3]; Leishmania donovani, po, 240 h, 10-d treatment orally twice a day
  ED50: 8.9 mg/kg
[4]; 3 hour +S9 treatment, 375 µg/mL
  MF (Mutation Frequency): 191.25 ×10-6
[4]; 3 hour +S9 treatment, 410.445 µg/mL
  MF (Mutation Frequency): 222.38 ×10-6
[4]; 3 hours with S9-mix and 24 hours without S9-mix
  mouse lymphoma screen result: negative
[4]; 24 hour -S9 treatment, 40 µg/mL
  MF (Mutation Frequency): 75.89 ×10-6
[4]; 24 hour -S9 treatment, 70 µg/mL
  MF (Mutation Frequency): 78.36 ×10-6
[4]; 24 hour -S9 treatment, 100 µg/mL
  MF (Mutation Frequency): 86.96 ×10-6

From article PMC6511062, “Preclinical candidate for the treatment of visceral leishmaniasis that acts through proteasome inhibition” (Proceedings of the National Academy of Sciences of the …, 2019)
